Reference: BindingDB's records for doi:10.1021/cb500956g (University of North Carolina At Chapel Hill, 2015)

Experiments:
Experiment in all cases: AlphaScreen Assay
Conditions in all cases: pH 8
[1] = target: Lysine-specific demethylase 5A (Homo sapiens, UniProt P29375)
Description: (§1) In brief, compound plates (1 μL at 10 mM highest concentration; 3-fold, 10-point dilutions in DMSO) were diluted in 1X assay buffer (20 mM TRIS pH 8.0, 25 mM NaCl, 2 mM DTT and 0.05% Tween-20) to 1 mM using a Multimek robotic pipettor (Nanoscreen), and 1 μL was spotted into the wells of 384-well low-volume Proxiplates (PerkinElmer). To these plates was added 9 μL of protein−peptide mix in a 1X assay buffer by Multidrop (Thermo) to bring the final compound concentration to 100 μM, and this was incubated for 30 min at RT. Next, 2 μL of a 1:1 mixture of streptavidin-conjugate donor and nickel-chelate acceptor beads (45μg/mL in 1X assay buffer) were added, and the plates were allowed to incubate for an additional 30 min in the dark at RT. After incubation, the plates were read on an EnVision multilabel reader equipped with an HTS AlphaScreen laser (PerkinElmer).

[2] = target: T1, Isoform 4 of Lethal(3)malignant brain tumor-like protein 1 (4) (Homo sapiens, UniProt Q9Y468)
T1 sequence (Q9Y468 whole entry): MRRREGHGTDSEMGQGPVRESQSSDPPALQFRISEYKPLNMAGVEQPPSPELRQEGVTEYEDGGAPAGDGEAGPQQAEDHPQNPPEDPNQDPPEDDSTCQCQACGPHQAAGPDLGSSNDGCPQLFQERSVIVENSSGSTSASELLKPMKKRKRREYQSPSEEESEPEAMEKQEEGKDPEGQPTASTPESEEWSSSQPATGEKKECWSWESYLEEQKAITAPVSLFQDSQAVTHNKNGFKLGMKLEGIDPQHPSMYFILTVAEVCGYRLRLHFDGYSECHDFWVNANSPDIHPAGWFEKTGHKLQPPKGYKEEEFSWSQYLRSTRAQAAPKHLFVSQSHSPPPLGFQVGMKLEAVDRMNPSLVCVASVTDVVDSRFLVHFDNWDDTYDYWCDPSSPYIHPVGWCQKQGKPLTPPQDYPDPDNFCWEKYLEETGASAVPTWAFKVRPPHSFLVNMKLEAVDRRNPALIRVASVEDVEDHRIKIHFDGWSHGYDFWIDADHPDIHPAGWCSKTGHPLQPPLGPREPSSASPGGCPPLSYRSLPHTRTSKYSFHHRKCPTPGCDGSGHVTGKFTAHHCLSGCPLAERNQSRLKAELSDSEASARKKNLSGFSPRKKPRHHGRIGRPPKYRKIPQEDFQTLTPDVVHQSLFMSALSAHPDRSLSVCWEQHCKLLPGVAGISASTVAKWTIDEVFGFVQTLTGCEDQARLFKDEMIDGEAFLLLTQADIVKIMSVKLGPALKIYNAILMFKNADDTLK
Description: as §1

[3] = target: T2, Chromobox protein homolog 7 (Homo sapiens, UniProt O95931)
T2 sequence (O95931 whole entry): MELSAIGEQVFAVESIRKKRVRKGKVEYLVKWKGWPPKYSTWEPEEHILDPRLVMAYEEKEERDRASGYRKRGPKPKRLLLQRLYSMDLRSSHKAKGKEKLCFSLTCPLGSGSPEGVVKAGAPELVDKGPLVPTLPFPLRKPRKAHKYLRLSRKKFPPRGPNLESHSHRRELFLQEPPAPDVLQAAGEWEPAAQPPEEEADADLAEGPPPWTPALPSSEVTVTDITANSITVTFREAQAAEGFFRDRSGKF
Description: as §1

Measured: IC50

Lysine-specific demethylase 5A, sequence (P29375 whole entry): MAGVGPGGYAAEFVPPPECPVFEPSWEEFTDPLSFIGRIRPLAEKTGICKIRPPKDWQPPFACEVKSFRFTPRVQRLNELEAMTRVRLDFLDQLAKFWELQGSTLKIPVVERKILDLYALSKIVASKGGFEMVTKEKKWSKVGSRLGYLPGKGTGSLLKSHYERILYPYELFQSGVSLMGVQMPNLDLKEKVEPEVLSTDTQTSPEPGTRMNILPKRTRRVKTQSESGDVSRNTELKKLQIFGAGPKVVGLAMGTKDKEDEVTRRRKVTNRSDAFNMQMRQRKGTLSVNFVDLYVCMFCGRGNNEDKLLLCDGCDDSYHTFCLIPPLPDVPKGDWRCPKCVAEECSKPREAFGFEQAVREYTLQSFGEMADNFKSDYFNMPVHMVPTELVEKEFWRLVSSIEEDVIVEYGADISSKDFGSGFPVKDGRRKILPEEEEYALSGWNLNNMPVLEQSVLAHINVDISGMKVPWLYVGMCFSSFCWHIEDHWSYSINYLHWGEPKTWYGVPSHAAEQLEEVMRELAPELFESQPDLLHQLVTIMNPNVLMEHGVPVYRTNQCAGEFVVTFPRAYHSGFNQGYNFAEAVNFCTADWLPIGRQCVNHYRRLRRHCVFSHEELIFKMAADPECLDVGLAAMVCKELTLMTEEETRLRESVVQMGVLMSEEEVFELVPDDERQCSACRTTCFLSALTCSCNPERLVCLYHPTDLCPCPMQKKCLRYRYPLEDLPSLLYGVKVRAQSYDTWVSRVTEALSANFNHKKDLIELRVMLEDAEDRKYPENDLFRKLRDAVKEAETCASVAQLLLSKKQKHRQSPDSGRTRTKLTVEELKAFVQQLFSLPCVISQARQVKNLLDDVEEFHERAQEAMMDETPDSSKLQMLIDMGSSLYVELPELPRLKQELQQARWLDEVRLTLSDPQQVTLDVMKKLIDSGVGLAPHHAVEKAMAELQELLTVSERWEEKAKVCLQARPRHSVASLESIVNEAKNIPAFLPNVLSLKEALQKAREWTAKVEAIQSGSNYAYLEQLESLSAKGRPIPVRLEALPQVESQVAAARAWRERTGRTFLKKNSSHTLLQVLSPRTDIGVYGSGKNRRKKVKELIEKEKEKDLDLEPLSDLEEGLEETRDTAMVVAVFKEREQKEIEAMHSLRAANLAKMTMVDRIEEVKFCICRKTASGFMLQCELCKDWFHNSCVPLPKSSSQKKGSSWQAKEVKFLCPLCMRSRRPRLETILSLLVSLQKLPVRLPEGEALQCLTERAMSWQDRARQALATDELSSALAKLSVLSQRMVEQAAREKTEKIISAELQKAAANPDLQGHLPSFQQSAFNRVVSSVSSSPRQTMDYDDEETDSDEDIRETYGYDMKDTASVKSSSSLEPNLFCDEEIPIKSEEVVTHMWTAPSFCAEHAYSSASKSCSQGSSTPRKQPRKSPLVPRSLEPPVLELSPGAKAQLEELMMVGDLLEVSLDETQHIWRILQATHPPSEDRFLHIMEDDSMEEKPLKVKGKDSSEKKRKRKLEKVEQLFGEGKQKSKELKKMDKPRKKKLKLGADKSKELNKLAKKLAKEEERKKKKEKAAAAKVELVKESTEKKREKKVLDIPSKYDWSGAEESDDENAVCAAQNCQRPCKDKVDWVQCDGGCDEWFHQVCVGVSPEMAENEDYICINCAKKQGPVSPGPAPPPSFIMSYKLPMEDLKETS

CC(C)(C)NCCCNC(=O)c1ccccc1Br [2-Bromo-N-(3-(tert-butylamino)propyl)benzamide (16)]
> 100 µM: all assays above

CC(C)(C)NCCCCNC(=O)c1cccc(Br)c1 [3-Bromo-N-(4-(tert-butylamino)butyl)benzamide (11)]
> 100 µM: all assays above

CC(C)(C)NCCCCCNC(=O)c1cccc(Br)c1 [3-Bromo-N-(5-(tert-butylamino)pentyl)benzamide (12)]
> 100 µM: all assays above

CC(C)(C)NCCCNC(=O)c1ccc(Br)cc1 [4-Bromo-N-(3-(tert-butylamino)propyl)benzamide (15)]
> 100 µM: all assays above

CC(C)(C)NCCCNC(=O)c1cc(Br)ccn1 [4-Bromo-N-(3-(tert-butylamino)propyl)picolinamide (24)]
> 100 µM: all assays above

CC(C)(C)N1CCN(C(=O)c2cccc(Br)c2)CC1 [(3-Bromophenyl)(4-(tert-butyl)piperazin-1-yl)methanone (10)]
> 100 µM: all assays above

CC(C)(C)NCCCNC(=O)c1cc(C(F)(F)F)ccn1 [N-(3-(Tert-butylamino)propyl)-4-(trifluoromethyl)picolinamide (25)]
> 100 µM: all assays above
